Results: article PMC8400955 (Pharmaceuticals, 2021)
Values joined by “and” are separate entries in the source; they are usually repeats but may differ in a detail not shown here. Identical values can stand only once. Like-named read-outs stand apart in the source and are kept apart here.

Legend:
Caco-2 cell monolayers = experiment: Bidirectional permeability across Caco-2 cell monolayers; type: in vitro ADME; settings: Caco-2, according to the results at 15 μM
Protocol: (§1) The bidirectional permeability and absorption mechanism of ZB716 was evaluated across Caco-2 cell monolayers.
(§2) The apical-to-basolateral (A–B) and basolateral-to-apical (B–A) transport of ZB716 in HBSS (25 mM HEPES) with 1% BSA was measured across Caco-2 cell monolayers. […] All incubations were performed in triplicate, and the integrity of the cell monolayers was confirmed using the marker Lucifer yellow.
(§3) The slope, k, was determined by linear
(§4) using the following equation: […]
(§5) 1.4 Intestinal Mucosal Permeation of ZB716
(§6) Papp= VAArea х timeх ሾdrugሿreceiverሾdrugሿinitial,donor

[1] = as above; type: in vitro ADME; settings: human; for recovery at 120 min, 1 μM: Caco-2, Caco-2, 1 μM; for recovery at 120 min, 5 μM: Caco-2, Caco-2, 5 μM; for recovery at 120 min, 15 μM: Caco-2, Caco-2, 15 μM
Protocol: as §1, §2, §3, §4, §5, §6

CYP1A2 = experiment: CYP induction (enzyme activity) in cryopreserved human hepatocytes, CYP1A2; settings: for fold induction at 72 h, 0.15 µM / fold induction at 72 h, 1.5 µM / fold induction at 72 h, 5 µM / fold induction at 72 h, 15 µM: human, plated cryopreserved human hepatocytes
Protocol: The UPLC–MS/MS (SHIMADZU, LC-30AD) equipped with waters Xselect®HSS T3 2.5 μm (2.1 × 50 mm) was used to detect the marker metabolites in the enzyme activity assay. The fold-induction enzyme activity was determined using the ratio calculation (the calculation details are available in the Supplementary Materials).
CYP activity was expressed as pmol/min/million cells where pmol was defined as the amount of metabolite formed during the reaction. […] The fold-induction enzyme activity was determined by the ratio:
Fold of induction = CYP activity(induced) / CYP activity(vehicle)
% of positive control = (𝑪𝒀𝑷 𝒂𝒄𝒕𝒊𝒗𝒊𝒕𝒚(𝒊𝒏𝒅𝒖𝒄𝒆𝒅)ି 𝑪𝒀𝑷 𝒂𝒄𝒕𝒊𝒗𝒊𝒕𝒚(𝑫𝑴𝑺𝑶))(𝑪𝒀𝑷 𝒂𝒄𝒕𝒊𝒗𝒊𝒕𝒚(𝒑𝒐𝒔𝒊𝒕𝒊𝒗𝒆 𝒄𝒐𝒏𝒕𝒓𝒐𝒍)ି 𝑪𝒀𝑷 𝒂𝒄𝒕𝒊𝒗𝒊𝒕𝒚(𝑫𝑴𝑺𝑶))х 𝟏𝟎𝟎 Based on the enzyme activity, a minimum of 2-fold increase of a response compared to vehicle control and ≥ 20% of the positive control was considered as the cutoff for a positive signal in in vitro induction

CYP2C19 = CYP2C19 (Homo sapiens, UniProt P33261); experiment: CYP phenotyping, recombinant CYP2C19
CYP2C19, sequence (P33261 whole entry): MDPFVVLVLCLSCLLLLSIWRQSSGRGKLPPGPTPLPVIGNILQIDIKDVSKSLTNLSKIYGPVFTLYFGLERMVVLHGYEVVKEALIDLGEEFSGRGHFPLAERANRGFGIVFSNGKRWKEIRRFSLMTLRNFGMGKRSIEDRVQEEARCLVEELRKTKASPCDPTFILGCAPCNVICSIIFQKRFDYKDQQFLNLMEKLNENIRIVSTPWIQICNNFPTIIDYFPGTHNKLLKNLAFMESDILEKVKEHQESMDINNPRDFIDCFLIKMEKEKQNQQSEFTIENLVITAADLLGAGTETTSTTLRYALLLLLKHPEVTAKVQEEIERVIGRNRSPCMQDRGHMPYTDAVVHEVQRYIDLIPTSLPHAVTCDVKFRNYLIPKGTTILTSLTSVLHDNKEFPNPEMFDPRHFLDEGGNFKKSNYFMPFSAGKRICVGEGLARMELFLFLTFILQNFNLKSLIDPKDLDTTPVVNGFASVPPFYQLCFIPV
Protocol: (§9) Bactosomes prepared from E. coli that heterologously expressed individual human CYP isoforms together with human CYP reductase were obtained from CYPEX LTD (Scotland, UK), and stored at −80 °C prior to use. […] Timepoints were taken at 0, 5, 10, 15, 20, and 30 min. Substrate disappearance was used to calculate intrinsic clearance (Clint) and half-life (t1/2). All incubations were performed in triplicate. […] The chemical inhibitors for CYP1A2, 2A6, 2B6, 2C8, 2C9, 2C19, 2D6, and 3A4 were furafylline, tranylcypromine, ticlopidine, montelukast, sulfaphenazole, N-3-benzylnirvanol, quinidine, and ketoconazole, respectively. Timepoints were collected at 0, 15, 30, 45, and 60 min, and the remaining percentage of the parent drug at each timepoint was calculated (the calculation details are available in the Supplementary Materials). All incubations were performed in triplicate.
(§10) 1.3.1 Intrinsic Clearance (Heterologously Expressed Human Cytochrome P450) All calculations were carried out using Microsoft Excel. The slope, k, was determined by linear regression of the natural logarithm of percent parent disappearance vs. incubation time curve. Peak areas for test article and internal standard were determined from extracted ion chromatograms. The peak area ratio was used to calculated for the results.
(§11) The half-life value (t1/2 rCYPi) was determined from the slope value: […]

CYP2C9 = CYP2C9 (Homo sapiens, UniProt P11712); experiment: CYP phenotyping, recombinant CYP2C9
CYP2C9, sequence (P11712 whole entry): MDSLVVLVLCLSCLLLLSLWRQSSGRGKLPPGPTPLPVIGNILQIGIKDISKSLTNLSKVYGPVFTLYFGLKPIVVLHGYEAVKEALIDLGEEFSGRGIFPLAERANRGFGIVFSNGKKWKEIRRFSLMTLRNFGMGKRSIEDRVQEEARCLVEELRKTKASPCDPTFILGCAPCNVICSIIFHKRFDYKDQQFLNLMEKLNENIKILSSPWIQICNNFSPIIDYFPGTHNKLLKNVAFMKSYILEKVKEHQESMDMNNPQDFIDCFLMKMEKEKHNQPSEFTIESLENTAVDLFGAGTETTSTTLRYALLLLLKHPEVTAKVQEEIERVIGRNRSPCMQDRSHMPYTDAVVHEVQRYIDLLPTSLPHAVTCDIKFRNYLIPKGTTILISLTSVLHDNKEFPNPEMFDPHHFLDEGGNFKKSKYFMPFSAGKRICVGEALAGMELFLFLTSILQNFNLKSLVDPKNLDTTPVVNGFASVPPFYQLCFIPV
Protocol: as §9, §10, §11

[2] = Plasma protein binding by equilibrium dialysis, human; type: in vitro ADME; settings: plasma (EDTA-K2 as anticoagulant)
Protocol: (§7) The in vitro binding of ZB716 to plasma proteins was determined by equilibrium dialysis technique in mouse, rat, dog, monkey, and human plasma (EDTA-K2 as anticoagulant), over the concentration range of 0.1–10 μM. The free concentration of ZB716 was below the lower limit of quantitation at 0.1, 1, and 10 μM in human, monkey, dog, rat, and mouse plasma.
(§8) The equilibrium dialysis method was used to investigate the in vitro binding of ZB716 to human, monkey, dog, rat, and mouse plasma proteins. The dialysis phosphate buffer solution (100 mM, pH 7.4) and plasma samples containing 0.1, 1, and 10 μM of ZB716 were added to separate chambers of dialysis wells of the HTDialysis device. The dialysis plate was placed in an incubator at 37 °C with 5% CO2 at approximately 100 rpm for 6 h. After incubation, the seal was removed, and 50 μL each of post-dialysis samples was pipetted from both the buffer and plasma chambers into fresh 96-well plates. The samples were analyzed via UPLC–MS/MS. The bound fraction, unbound fraction, recovery (%), and remaining (%) were calculated by Equations (2)–(5):%Unbound = (Conc.buffer chamber/Conc.plasma chamber) × 100(2) %Bound = 100% − %Unbound (3) %Recovery = (Conc.buffer chamber + Conc.plasma chamber)/Conc.Total sample × 100 (4) %Remaining = Conc.6h/Conc.0h × 100 (5)

human plasma proteins = experiment: as above; type: in vitro ADME; settings: for Remaining: 6 h
Protocol: as §7, §8

dog plasma proteins = experiment: Plasma protein binding by equilibrium dialysis, dog; type: in vitro ADME; settings: for Remaining: 6 h
Protocol: as §7, §8

[3] = as above; type: in vitro ADME; settings: plasma (EDTA-K2 as anticoagulant)
Protocol: as §7, §8

CYP3A4 = CYP3A4 (Homo sapiens, UniProt P08684); experiment: CYP phenotyping, recombinant CYP3A4
CYP3A4, sequence (P08684 whole entry): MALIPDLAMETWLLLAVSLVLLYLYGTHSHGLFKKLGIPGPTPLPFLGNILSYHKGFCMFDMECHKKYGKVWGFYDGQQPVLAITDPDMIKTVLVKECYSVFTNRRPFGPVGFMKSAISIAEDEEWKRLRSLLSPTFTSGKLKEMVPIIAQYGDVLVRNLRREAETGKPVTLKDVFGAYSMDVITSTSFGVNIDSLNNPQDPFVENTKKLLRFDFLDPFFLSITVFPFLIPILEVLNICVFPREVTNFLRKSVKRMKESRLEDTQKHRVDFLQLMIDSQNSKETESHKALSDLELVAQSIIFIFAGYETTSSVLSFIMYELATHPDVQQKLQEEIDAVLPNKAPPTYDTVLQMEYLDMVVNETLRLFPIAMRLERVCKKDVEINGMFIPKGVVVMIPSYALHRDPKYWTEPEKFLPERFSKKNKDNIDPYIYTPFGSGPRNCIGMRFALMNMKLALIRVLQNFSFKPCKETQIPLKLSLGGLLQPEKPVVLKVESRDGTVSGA
Protocol: as §9
The slope, k, was determined by linear regression of the natural logarithm of percent parent disappearance vs. incubation time curve. Peak areas for test article and internal standard were determined from extracted ion chromatograms. The peak area ratio was used to calculated for the results.
The half-life value (t1/2 rCYPi) was determined from the slope value:
Conversion of the t1/2 rCYPi (in min) into the intrinsic clearance (Clint rCYPi in μL/min/pmol) was done using the following equation:
1.3.2 For inhibition ratio (%) (Liver microsomes with and without inhibitors) The slope value, k, was determined by linear regression of the natural logarithm of the remaining percentage of the parent drug vs. incubation time curve. If the turnover was not significant (T-test with p<0.05 was not obtained) and the percentage remaining at last time point was ≥ 80%, the k value was

monkey plasma proteins = experiment: Plasma protein binding by equilibrium dialysis, monkey; type: in vitro ADME; settings: for Remaining: 6 h
Protocol: as §7, §8

[4] = as above; type: in vitro ADME; settings: plasma (EDTA-K2 as anticoagulant)
Protocol: as §7, §8

Compound: C[C@]12CC[C@@H]3c4ccc(B(O)O)cc4C[C@@H](CCCCCCCCC[S+]([O-])CCCC(F)(F)C(F)(F)F)[C@H]3[C@@H]1CC[C@@H]2O (some centres unmarked) [ZB716, fulvestrant-3-boronic acid]
- permeability class (Caco-2 cell monolayers): low permeability
- recovery at 120 min, 1 μM ([1]; read-out: Recovery A to B): < 66.6%
- recovery at 120 min, 1 μM ([1]; read-out: Recovery B to A): 66.5 ± 0.7%
- recovery at 120 min, 5 μM ([1]; read-out: Recovery A to B): < 67%
- recovery at 120 min, 5 μM ([1]; read-out: Recovery B to A): 73.7 ± 1.5%
- recovery at 120 min, 15 μM ([1]; read-out: Recovery A to B): 75.7 ± 2%
- recovery at 120 min, 15 μM ([1]; read-out: Recovery B to A): 84.2 ± 4.8%
- Papp A→B at 120 min, 1 μM ([1]; Caco-2, 1 μM): < 0.778 ×10⁻⁶ cm/s
- Papp B→A at 120 min, 1 μM ([1]; Caco-2, 1 μM): 0.747 ± 0.0316 ×10⁻⁶ cm/s
- efflux ratio at 120 min, 1 μM ([1]; Caco-2, 1 μM): > 0.935
- Papp A→B at 120 min, 5 μM ([1]; Caco-2, 5 μM): < 0.159 ×10⁻⁶ cm/s
- Papp B→A at 120 min, 5 μM ([1]; Caco-2, 5 μM): 0.82 ± 0.127 ×10⁻⁶ cm/s
- efflux ratio at 120 min, 5 μM ([1]; Caco-2, 5 μM): > 4.55
- Papp A→B at 120 min, 15 μM ([1]; Caco-2, 15 μM): 0.188 ± 0.021 ×10⁻⁶ cm/s
- Papp B→A at 120 min, 15 μM ([1]; Caco-2, 15 μM): 0.534 ± 0.028 ×10⁻⁶ cm/s
- efflux ratio at 120 min, 15 μM ([1]; Caco-2, 15 μM): 2.87 ± 0.49
- Percent of Control (CYP1A2; donor one, 0.15 µM): 2.92%
- Percent of Control (CYP1A2; donor one, 1.5 µM): 18.4%
- Percent of Control (CYP1A2; donor one, 5 µM): 73.6%
- Percent of Control (CYP1A2; donor one, 15 µM): 80.0%
- Percent of Control (CYP1A2; donor three, 0.15 µM): 3.78%
- Percent of Control (CYP1A2; donor three, 1.5 µM): 45.0%
- Percent of Control (CYP1A2; donor three, 5 µM): 41.6%
- Percent of Control (CYP1A2; donor three, 15 µM): 20.3%
- Percent of Control (CYP1A2; donor two, 0.15 µM): 0.777%
- Percent of Control (CYP1A2; donor two, 1.5 µM): 8.38%
- Percent of Control (CYP1A2; donor two, 5 µM): 17.4%
- Percent of Control (CYP1A2; donor two, 15 µM): 12.6%
- fold induction at 72 h, 0.15 µM (CYP1A2; donor one, 0.15 µM): 1.24 ± 0.1
- fold induction at 72 h, 1.5 µM (CYP1A2; donor one, 1.5 µM): 2.52 ± 0.17
- fold induction at 72 h, 5 µM (CYP1A2; donor one, 5 µM): 7.09 ± 0.78
- fold induction at 72 h, 15 µM (CYP1A2; donor one, 15 µM): 7.62 ± 1.63
- fold induction at 72 h, 0.15 µM (CYP1A2; donor three, 0.15 µM): 1.2 ± 0.22
- fold induction at 72 h, 1.5 µM (CYP1A2; donor three, 1.5 µM): 3.42 ± 0.2
- fold induction at 72 h, 5 µM (CYP1A2; donor three, 5 µM): 3.24 ± 0.53
- fold induction at 72 h, 15 µM (CYP1A2; donor three, 15 µM): 2.09 ± 0.49
- fold induction at 72 h, 0.15 µM (CYP1A2; donor two, 0.15 µM): 1.11 ± 0.05
- fold induction at 72 h, 1.5 µM (CYP1A2; donor two, 1.5 µM): 2.17 ± 0.03
- fold induction at 72 h, 5 µM (CYP1A2; donor two, 5 µM): 3.44 ± 0.18
- fold induction at 72 h, 15 µM (CYP1A2; donor two, 15 µM): 2.77 ± 0.34
- half-life at 2 µM (CYP2C19; human): 21.6 ± 2 min
- Clint (CYP2C19; recombinant CYP2C19, 2 µM ZB716): 0.646 ± 0.063 µL/min/pmol CYP
- half-life at 2 µM (CYP2C9; human): 18.6 ± 0.4 min
- Clint (CYP2C9; recombinant CYP2C9, 2 µM ZB716): 0.746 ± 0.015 µL/min/pmol CYP
- recovery at 6 h, 0.1 μM ([2]; pH 7.4, 0.1 μM): < 69.1%
- recovery at 6 h, 1 μM ([2]; pH 7.4, 1 μM): < 64%
- recovery at 6 h, 10 μM ([2]; pH 7.4, 10 μM): < 74.7%
- Bound (human plasma proteins; 0.1 μM): >95.7%
- Unbound (human plasma proteins; 0.1 μM): <4.33%
- Remaining (human plasma proteins; 0.1 μM): 57.0 ± 7.7%
- Bound (human plasma proteins; 1 μM): >99.6%
- Unbound (human plasma proteins; 1 μM): <0.392%
- Remaining (human plasma proteins; 1 μM): 57.9 ± 4.9%
- Bound (human plasma proteins; 10 μM): >99.96%
- Remaining (human plasma proteins; 10 μM): 74.5 ± 3.4%
- Bound (dog plasma proteins; 0.1 μM): >95.6%
- Remaining (dog plasma proteins; 0.1 μM): 39.1 ± 1.8%
- Bound (dog plasma proteins; 1 μM): >99.6%
- Unbound (dog plasma proteins; 1 μM): <0.373%
- Remaining (dog plasma proteins; 1 μM): 53.2 ± 4.4%
- Bound (dog plasma proteins; 10 μM): >99.96%
- Unbound (dog plasma proteins; 10 μM): <0.0412%
- Remaining (dog plasma proteins; 10 μM): 65.2 ± 4.3%
- recovery at 6 h, 0.1 μM ([3]; pH 7.4, 0.1 μM): < 63.5%
- recovery at 6 h, 1 μM ([3]; pH 7.4, 1 μM): < 64.9%
- recovery at 6 h, 10 μM ([3]; pH 7.4, 10 μM): < 68.7%
- half-life at 2 µM (CYP3A4; human): 5.91 ± 0.39 min
- Clint (CYP3A4; recombinant CYP3A4, 2 µM ZB716): 2.35 µL/min/pmol CYP and 2.35 ± 0.15 µL/min/pmol CYP
- Bound (monkey plasma proteins; 0.1 μM): >96.4%
- Unbound (monkey plasma proteins; 0.1 μM): <3.63%
- Remaining (monkey plasma proteins; 0.1 μM): 65.3 ± 2.8%
- Bound (monkey plasma proteins; 1 μM): >99.6%
- Unbound (monkey plasma proteins; 1 μM): <0.326%
- Remaining (monkey plasma proteins; 1 μM): 70.9 ± 4.8%
- Bound (monkey plasma proteins; 10 μM): >99.97%
- Unbound (monkey plasma proteins; 10 μM): <0.0308%
- Remaining (monkey plasma proteins; 10 μM): 93.9 ± 10.0%
- recovery at 6 h, 0.1 μM ([4]; pH 7.4, 0.1 μM): < 68.2%
- recovery at 6 h, 1 μM ([4]; pH 7.4, 1 μM): < 70%
- recovery at 6 h, 10 μM ([4]; pH 7.4, 10 μM): < 87.2%
